This note sets out measurements from patent publication US9234017B2, “Aquaporin-4 peptide compositions and methods of use thereof” (The Regents of the University of California, priority 2012, dated 2016).

Like-named read-outs stand apart in the source and are kept apart here.

What all share (assay type): cell-based, human
Experiment [1] relates to T cells initially stimulated with AQP4 p63-76 or ABC-TP.
Experiment [2] relates to T cells from NMO patients. Nature of the experiment: T cell proliferation by CFSE dilution (cell division index). The settings on record: for proliferative T cell response to individual AQP4 peptides: NMO patients, CFSE dilution, peptides 10 μg/ml, 10 d, FIG. 1D.
The subject of experiment [3] is AQP4 p61-80-specific T cells. Nature of the experiment: Epitope mapping: recall proliferation of AQP4 p61-80-reactive T cells to truncated peptides. The settings on record: NMO patients, peptides 10 μg/ml, irradiated autologous APC, [3H]thymidine after 3 d, FIG. 3A, 3B.
For experiment [4], the system named is peripheral blood mononuclear cells (PBMC). The experiment in a line: PBMC proliferation by [3H]thymidine incorporation, primary cultures. The note with it: for proliferative responses of NMO patients to individual AQP4 peptides: peptides 10 μg/ml, 6 d, [3H]thymidine, FIG. 1B. A general note: Dividing cells build labelled thymidine or BrdU into new DNA.
The test system of experiment [5] is CD4+CFSElow proliferating T cells. Nature of the experiment: Intracellular IL-17 and IFN-γ staining of proliferating antigen-specific CD4+ T cells. The settings on record: for frequencies of IL-17+ single- and IL-17+IFN-γ+ double-positive (Th17) cells: NMO patients in comparison to HC, PMA/Ionomycin 5 h, FIG. 4A, B. Here is the method:
(§1) Single-cell suspensions were incubated with human serum to prevent nonspecific antibody binding, then stained with anti-CD3, -CD4, -CD8, -CD25, -MHC Class II, -CD40, -CD80, and -CD86 (eBioscience and BD Bioscience). Intracellular cytokine production by CD4^+ T cells and APC was analyzed by monitoring the expression of IFN-γ, IL-17, IL-6, IL-1β and IL-10 (1:100) (eBioscience). Foxp3 staining was performed according to the manufacturer's protocol (eBioscience). For intracellular cytokine staining, T cells were stimulated with phorbol 12-myristate 13-acetate (PMA, 50 ng/ml) plus ionomycin (500 ng/ml) in the presence of GolgiStop (1 μl/ml) (BD Biosciences). CD14^+ cells were stimulated with LPS (1 μg/ml; Sigma-Aldrich) for 4 or 20 h in the presence of GolgiStop. Cells were analyzed by flow cytometry on a FACS Canto flow cytometer (BD Biosciences).
FIG. 4A-4D. […] PBMC were stained with CFSE and cultured for 10 d with AQP4 peptides (10 μg/ml) or rhAQP4 (5 μg/ml). (Panel A) CD4^+CFSE^low proliferating T cells were analyzed for IL-17 and IFN-γ production by intracellular staining after stimulation with PMA/Ionomycin for 5 h. (Panel B) Frequencies of IL17^+IFN-γ^−, IL17^+IFN-γ^+ and IL17^−IFN-γ^+ were examined among proliferating p61-80-specific CD4^+ T cells (n=8 NMO and n=5 HC), p156-170-specific CD4^+ T cells (n=6 NMO and n=3 HC) and rhAQP4-specific CD4^+ T cells (n=6 NMO and n=5 HC). Frequencies of IL-17- and IFN-γ-single positive T cells were used to calculate Th17/Th1 ratio. (Panel C) PBMC were examined by FACS for expression of Treg markers including CD4, CD127 and CD25. (Panel D) CFSE-labeled PBMC were cultured for 10 d with AQP4 p61-80 (10 μg/ml) or rhAQP4 (5 μg/ml). Proliferating CD4^+ T cells (CDI>2) were examined by FACS for expression of CD25^high, defined as the top half of CD25^+ cells, and Foxp3 (n=8 NMO p61-80, n=6 HC p61-80, n=7 NMO rhAQP4 and n=5 HC rhAQP4). Box-and-whisker plots include the median, distribution and range. **P<0.01 Mann-Whitney U test.

In experiment [6] the test system is proliferating CD4+ T cells. The experiment in a line: Treg (CD25high Foxp3) frequency among proliferating antigen-specific CD4+ T cells. The settings on record: NMO patients versus HC, FIG. 4D. The protocol:
as §1
FIG. 4A-4D. […] PBMC were stained with CFSE and cultured for 10 d with AQP4 peptides (10 μg/ml) or rhAQP4 (5 μg/ml). (Panel A) CD4^+CFSE^low proliferating T cells were analyzed for IL-17 and IFN-γ production by intracellular staining after stimulation with PMA/Ionomycin for 5 h. (Panel B) Frequencies of IL17^+IFN-γ^−, IL17^+IFN-γ^+ and IL17^−IFN-γ^+ were examined among proliferating p61-80-specific CD4^+ T cells (n=8 NMO and n=5 HC), p156-170-specific CD4^+ T cells (n=6 NMO and n=3 HC) and rhAQP4-specific CD4^+ T cells (n=6 NMO and n=5 HC). […]

The test system of experiment [7] is T cells initially stimulated with rhAQP4. Nature of the experiment: Antigen recall proliferation after initial stimulation with rhAQP4.
The mark [8] stands for this setting: PBMC from 4 NMO patients, primed 10 d at 10 μg/ml, [3H]thymidine after 3 d, FIG. 3E.

As for FIILPVSMVLISLV [ABC-TP p204-217], the “recall proliferation of AQP4 p63-76-primed T cells” value in experiment [1] was “proliferated”. Besides, the “proliferation of T cells from NMO patients” value in experiment [2] is listed as “proliferated significantly”.

Regarding “PVDMVLISLCFGLS (synthetic poypeptide) [p67-80]”, the “proliferation of AQP4 p61-80-specific T cells to truncated peptides” value (“proliferation … to truncated peptides” for short) in experiment [3] is given as “less efficiently than p63-80”.

For “GILYLVTPPSVVGGLGVTMV (synthetic poypeptide) [p131-150]”, the “proliferative responses of NMO patients to individual AQP4 peptides” value (shortened to “proliferative responses of NMO patients”) in experiment [4] is given as “T cell determinants were identified”.

Take “PLPVDMVLISLCFGLS (synthetic poypeptide) [p65-80]”: in experiment [3], the “proliferation … to truncated peptides” value is “less efficiently than p63-80”.

On to “AGHGLLVELIITFQL (synthetic poypeptide) [p156-170]”, for which, in experiment [1] (setting [8]), the “recall proliferation of ABC-TP p204-217-primed T cells” value is listed as “not observed” and the “recall proliferation of AQP4 p63-76-primed T cells” value is listed as “not observed”. The “frequencies of IL-17+ single- and IL-17+IFN-γ+ double-positive (Th17) cells” value (“frequencies” for short) in experiment [5] is recorded as “No Th17 bias”. Moreover, in experiment [4], the “proliferative responses of NMO patients” value was “T cell determinants were identified”. For the same substance, the “proliferative T cell response to individual AQP4 peptides” value (“proliferative T cell response” below) in experiment [2] is given as “T cell responses were observed”.

For the substance “GTEKPLPVDMVLISLC (synthetic poypeptide) [p61-76]”, the “proliferation … to truncated peptides” value in experiment [3] was “proliferated”.

In the case of “EKPLPVDMVLISLC (listed as Homo sapiens) [p63-76]”, the “recall proliferation of ABC-TP p204-217-primed T cells” value in experiment [1] (setting [8]) was “vice versa”. Moreover, the “proliferation … to truncated peptides” value in experiment [3] is recorded as “nearly as efficiently”.

For the substance “DMVLISLCFGLS (synthetic poypeptide) [p69-80]”, the “proliferation … to truncated peptides” value in experiment [3] is recorded as “less efficiently than p63-80”.

For “rhAQP4: Full length recombinant human AQP4 (1-323) expressed in Pichia pastoris”, the “frequency of Treg among antigen-specific T cells” value in experiment [6] is recorded as “significantly reduced frequency”. In addition, in experiment [5], the “frequencies” value is given as “not significant”.

In the case of “GTEKPLPVDMVLIS (synthetic poypeptide) [p61-74]”, the “proliferation … to truncated peptides” value in experiment [3] is recorded as “not”.

As for “GTEKPLPVDMVL (synthetic poypeptide) [p61-72]”, the “proliferation … to truncated peptides” value in experiment [3] is “not”.

On to “tetanus toxoid: Tetanus toxoid obtained from List Biological Laboratories, Inc. [reference compound]”, for which the “response to tetanus toxoid, HC compared with NMO patients” value in experiment [4] (lymphocytes from healthy controls) is reported as “comparable responses”.

For the substance “p21-40: synthetic overlapping AQP4 20-mer peptide, amino acids 21-40 of human AQP4 (NIMVAFKGVWTQAFWKAVTA; UniProt P55087 21-40, looked up, fragment)”, the “proliferative responses of NMO patients” value in experiment [4] was “T cell determinants were identified”. In addition, the “proliferative T cell response” value in experiment [2] is “T cell responses were observed”.

For “GTEKPLPVDMVLISLCFG (synthetic poypeptide) [p61-78]”, the “proliferation … to truncated peptides” value in experiment [3] is “proliferated”.

Take “p11-30: synthetic overlapping AQP4 20-mer peptide, amino acids 11-30 of human AQP4 (GKCGPLCTRENIMVAFKGVW; UniProt P55087 11-30, looked up, fragment)”: the “proliferative responses of NMO patients” value in experiment [4] is recorded as “not detected”. The “proliferative T cell response” value in experiment [2] was “T cell responses were observed”.

For the substance “RFKEAFSKAAQQTKGSYMEV (synthetic poypeptide) [p261-280]”, the “proliferative responses of NMO patients” value in experiment [4] is “not detected”. Moreover, the “proliferative T cell response” value in experiment [2] is on record as “T cell responses were observed”.

For “SMNPARSFGPAVIMGNWENH (synthetic poypeptide) [p211-230]”, the “proliferative responses of NMO patients” value in experiment [4] is reported as “T cell determinants were identified”.

Turning to “p61-80: peptide of amino acids position 61 to position 80 of human AQP-4 protein sequence (GTEKPLPVDMVLISLCFGLS)”, in experiment [7], the “immunodominance among peptides examined” value is given as “clearly immunodominant”. For the same substance, the “frequencies” value in experiment [5] is “significantly higher frequencies”. The Th17/Th1 ratio result in experiment [5] (NMO patients versus HC) is “elevated”. The “proliferative responses of NMO patients” value in experiment [4] is on record as “T cell determinants were identified”. Further, the “proportion of CD4+ T cells that responded” value in experiment [2] (NMO patients versus HC, FIG. 1E) was “higher in NMO patients than HC”. The “proliferative T cell response” value in experiment [2] was “robust proliferative T cell response”.
